Key:
[1] = tested on: human mesangial cells; test: Intracellular cAMP level in human mesangial cells (AlphaScreen cAMP functional assay); assay type: cell-based; details: co-treatment with forskolin 1 μM
Procedure: (§1) Human mesangial cells were purchased from DS Pharma Biomedical (US). Compound A was obtained from Takeda GmbH, Konstanz, Germany. Forskolin and dimethyl sulfoxide (DMSO) were purchased from Wako Pure Chemical Industries, Ltd (Japan). Recombinant human TGF-β was purchased from R&D systems (USA).
On day 0, human mesangial cells were seeded at a cell density of 2×10^5 cells/well in CSC complete medium (Cell Systems, USA) on type 1 collagen-coated 24-well plate (AGC TECHNO GLASS Co. Ltd., Japan) in an atmosphere of 95% air and 5% CO2 at 37° C. On day 1, the cells were serum starved with CSC medium which is not containing serum and growth factors. On day 2, Compound A at final concentrations of 0.001, 0.01, 0.1, 1 and 10 μM or DMSO (control) was added to the culture medium. […]
For evaluation of the effects of Compound A on intracellular cAMP level, statistical differences between DMSO-treatment and Compound A treatment groups were analyzed with one-tailed Williams' test. For the evaluation of the effects of Compound A on mRNA expression levels, statistical differences between forskolin/TGF-β-treatment and Compound A treatment groups were analyzed with one-tailed Williams' test. To confirm the mRNA induction by TGF-β, mRNA expression levels between untreated and TGF-β-treated group were analyzed by Students t-test. […]

[2] = tested on: uninephrectomized db/db mice; test: Diabetic nephropathy in uninephrectomized db/db mice, 8 week treatment starting 4 weeks after the uninephrectomy; assay type: in vivo; details: 8 weeks starting 4 weeks after uninephrectomy
Procedure: Male 5-week-old BKS.Cg-+Lepr^db/+Lepr^db (db/db) mice were purchased from CLEA Japan, Inc. All mice were fed with a standard diet (CE-2, CLEA Japan, Inc.) and tap water ad libitum.
Compound A was obtained from Takeda GmbH, Konstanz, Germany. Irbesartan was purchased from LKT Laboratories, Inc (USA).
In 6 week old male db/db mice an unilateral nephrectomy was performed. Under the anesthesia with isoflurane inhalation, the right kidney was removed from the mice. After 4-week recovery period, blood samples were obtained by the puncture of facial vein and blood level of glycosylated hemoglobin (GHb) was measured by automated HPLC-based GHb analyzer (HLC-723 G8, TOSOH, Japan). After the separation of plasma samples by centrifugation, also plasma levels of glucose (PG) were measured by Autoanalyzer 7180 (Hitachi, Japan). Urine samples were collected for a 8 h time-period using metabolic cages and urine creatinine level was measured by Autoanalyzer 7180. After desaltation of urine samples with PD MiniTrap G-25 column (GE healthcare, UK), urinary levels of albumin were measured by ELISA, and urinary albumin/creatinine ratio (UACR) was calculated.
Compound A (1, 3 and 10 mg/kg, QD), roflumilast (3 mg/kg, QD) and irbesartan (50 mg/kg, QD) were suspended in 0.5% methyl cellulose solution and orally administered to mice for 8 weeks starting 4 weeks after the uninephrectomy.
At the end of the 8 weeks once daily administration blood, plasma and urine samples were obtained according to the same methods as described above. GHb, PG, urinary creatinine and albumin were measured and UACR was calculated. Body weight (BW) was measured every week during the treatment.
For evaluation of the effects of Compound A, statistical differences between vehicle- and Compound A treated groups were analyzed with two-tailed Williams' test for PG and BW and two-tailed Shirley-Williams' test for UACR and GHb. The P-values less than 0.05 were considered statistically significant in two-tailed Williams' test or Shirley-Williams' test.
For roflumilast and irbesartan, statistical differences between vehicle- and compounds-treated groups were analyzed with Student's t-test for GHb, PG and BW and Welch test for UACR. The P-values less than 0.05 were considered statistically significant in Student's t-test and Welch test.

[3] = tested on: connective tissue growth factor (CTGF) mRNA; test: TGF-β-induced mRNA expression of connective tissue growth factor (CTGF) in human mesangial cells; assay type: cell-based; details: 0.001-10 μM with forskolin 1 μM and TGF-β 3 ng/mL, 6 h
Procedure: as §1
On day 0, human mesangial cells were seeded at a cell density of 2×10^5 cells/well in CSC complete medium (Cell Systems, USA) on type 1 collagen-coated 24-well plate (AGC TECHNO GLASS Co. Ltd., Japan) in an atmosphere of 95% air and 5% CO2 at 37° C. On day 1, the cells were serum starved with CMC medium which is not containing serum and growth factors. On day 2, Compound A at final concentrations of 0.001, 0.01, 0.1, 1 and 10 μM or DMSO (control) was added to the culture medium. […] For the measurement of mRNA levels of type 1 collagen α1 chain and fibronectin, total RNA isolated at 24 hours after forskolin/TGF-β stimulation was used. mRNA expression levels were measured by quantitative real-time RT-PCR methods with TaqMan gene expression master mix and ABI PRISM 9700 (Life Technologies, USA) with target mRNA specific primer and probe sets [Human connective tissue growth factor (Hs1026927_g1); Human plasminogen activator inhibitor-1 (Hs00167155_m1); Human type 1 collagenal chain (Hs00164004_m1); Human fibronectin (HS00365052_m1); Humanglyceraldehyde 3-phosphate dehydrogenase (HS2758991_g1)]. […]

CCOc1cc2c(cc1OC)C(c1ccc(=O)n(C)c1)=N[C@@H]1CC[C@@H](O)C[C@H]21 [Compound A, 5-((2R,4aR,10bR)-9-Ethoxy-2-hydroxy-8-methoxy-1,2,3,4,4a,10b-hexahydro-phenanthridin-6-yl)1-methyl-1H-pyridin-2-one]
effect on intracellular cAMP accumulation ([1]; 0.001-10 μM): further enhanced intracellular cAMP accumulation in a concentration dependent manner
concentration at which the significant effect on intracellular cAMP accumulation was observed [1]: ≥ 0.1 µM
effect on increase of urinary albumin/creatinine ratio (UACR) ([2]; 1 mg/kg QD oral): significantly suppressed the increase of UACR
effect on increase of urinary albumin/creatinine ratio (UACR) ([2]; 3 mg/kg QD oral): almost completely inhibited the increase of UACR
effect on body weight ([2]; 10 mg/kg QD oral): slightly, but statistically significantly, suppressed the increase of body weight
effect on increase of urinary albumin/creatinine ratio (UACR) ([2]; 10 mg/kg QD oral): almost completely inhibited the increase of UACR
effect on blood level of glycosylated hemoglobin (GHb) ([2]; 1, 3 and 10 mg/kg QD oral): significantly inhibited the elevation of GHb and PG in a dose-dependent manner
effect on plasma levels of glucose (PG) ([2]; 1, 3 and 10 mg/kg QD oral): significantly inhibited the elevation of GHb and PG in a dose-dependent manner
effect on TGF-β-induced mRNA expression of CTGF [3]: further suppressed by the treatment with Compound A in a concentration-dependent manner
